From US8124657B2, “Metallofullerols and their applications for preparation of medicine for inhibition of tumor growth” (Institute of High Energy Physics Chinese Academy of Sciences, priority 2005, dated 2012)
Marks after values point to notes of the source that are not given here.

Legend:
[1] = system: H22 hepatoma; test: Antitumor activity on murine H22 hepatoma implanted subcutaneously in Kunming mice; type: in vivo; settings: for Tumor Weight: mean±SEM
Protocol: Antitumor studies of hydroxylated metallofullerene nanoparticles were performed on Kunming mice (female, adult, 4 weeks at the start of the experiment, body weight ranging from 20 to 22 g). The mice were subcutaneously implanted with 1×10^6 cells of H22 hepatoma (in 100 μl of saline) in each mouse at the right hind leg. Primary tumors (before administration of antitumor agents) were measured with calipers. The end point of the experiment was determined by the diameter of their leg loaded with tumor up to 2 or 2.2 centimeters. The size of tumor was monitored by daily measurement. Tumor growth curve was obtained by the diameter of the tumor as a function of the time.
The 40 mice of weight ranging from 20 to 22 g were randomly divided into 6 groups. The tumor-bearing mice were then systemically treated with hydroxylated metallofullerene nanoparticles saline solution by intraperitoneal injections once a day. Two doses of hydroxylated metallofullerene nanoparticles, 114 and 228 μg/kg corresponding to 1×10^−7 and 2×10^−7 mol/kg, respectively, were used in the experiment. The currently clinic antineoplastic agent CTX was used for the positive control, with a dose 30 mg/kg (1×10^−4 mol/kg, MW 279.1) of the currently clinic use for cancer therapy. Because of its side effects, treatments by 1×10^−4 and 5×10^−[…] of CTX continued for the first 7 days. Each mouse was administrated intraperitoneally (i.p.) a single dose of 0.2 ml per day from the second day of inoculation and continued to the day before sacrifice. The change of the tumor size was precisely measured every 24 hours.
Table 1 is the tumor weights (mean±SEM, Table 1) from 5-7 mice in each group. FIG. 1 is the Inhibition curve of hepatoma growth in mice by treatment with metallofullerol nanoparticles in two independent experiments. The growth of tumor size was monitored through measuring the diameter of the tumor every 24 hours. Tumor volumes were then calculated according to the formula: V=4πr^3/3. Tumor growth curve was obtained by the diameter of the tumor.

[2] = Serum liver and kidney function markers in H22 tumor-bearing mice; type: in vivo
Protocol: In another aspect, the invention of hydrolated metallofullerene nanoparticles low toxicity in vivo. Liver function was evaluated with serum levels of total bilirubin levels (TBIL), alanine aminotransferase (ALT) and aspartate aminotransferase (AST). Nephrotoxicity was determined by blood urea nitrogen (BUN) and creatinine (Cr). For instance, the ALT levels of saline-treated groups are almost 4 times of the normal mean value. These indicate that implantation of H22 hepatoma itself in mice has harmed the functions of liver and kidney before treatments. […] After nanoparticle-treatment, the activities of ALT and AST (P<0.01) are reduced by 40% compared with saline control.
Table 2 is the serum TBIL, ALT, AST, and creatinine levels in tumor-bearing mice associated with metallofullerol treatment.

[3] = system: H22 hepatoma tumor tissues; test: HE staining of tumor tissues of H22 tumor-bearing mice; type: in vivo
From the text: The tumor morphology of HE staining of paraffin-embedded sections of tumor tissues in nanoparticle-treated, CTX-treated and the control groups, are shown in FIG. 9. In the saline control group, tumor cells heavily proliferated, arrayed regularly, and grievously invaded surrounding musculature (FIGS. 9A and B). […] When […] H22 liver tumors developed subcutaneously in mice, the envelope surrounding the neoplastic tissues, mainly composed of capillary vessels, fibrosis and lymphadenoid tissues were formed (FIG. 9C). […] In the [Gd@C82(OH)22]n-treated groups, lymphocyte hyperplasia (lymphopoiesis) and aggregated follicles around the transplanted tumor tissues were clearly seen (FIG. 9C). But in the CTX-treated mice, this envelope of fibroblasts associated with sporadic neutrophil cells was small so that it could not completely enclose the entire tumor tissues. Unlike in groups of the nanoparticle-treatment, the tumor invasion into surrounding normal muscle cells still existed in the CTX-treatment groups; although necrosis of tumor tissue was observed (FIGS. 9E and F).

[4] = system: MCF-7 human breast carcinoma
Protocol: Athymic BALB/c nu/nu female mice (weighing 16.0±1.0 g) were acclimated in the controlled environment (22±1° C. in temperature, 60±10% in humidity and a 12 h light/dark cycle) with free access to sterile distilled water and commercial laboratory complete food containing no pathogens. All animal experiments were performed in compliance with local ethics committee. The human beast cancer MCF-7 cell line was provided by the Cancer Institute and Cancer Hospital, Chinese Academy of Medical Sciences. The tumor bearing nude mice (female) were randomly divided into three groups, twelve in each group. […] A currently used clinical antitumor agent, Paclitaxel, was used as the positive control. Paclitaxel was given 4 times at intervals of 3 days at the dose of 10 mg/kg; when it was not injected, saline solution was injected instead of it. 0.9% saline solution was used as a negative control in the antitumor experiment. The whole administration process lasted 14 days after the starting point. The body weight and tumor size were used as two basic parameters in the experiments, and tumor growth and body weight curve were prepared as a function of time. Tumor weight was calculated according to the formula: Tumor weight (mg)=length (mm)×(width (mm))^2/2.

[5] = Dosage I (Low): CTX 5 × 10^−5 mol/kg/day i.p., n = 6
[6] = Dosage II (High): CTX 1 × 10^−4 mol/kg/day i.p., n = 11

SMILES | Inhibition Efficiency [1, 5] [%] | Tumor Weight [1, 5] [g] | Inhibition Efficiency [1, 6] [%] | Tumor Weight [1, 6] [g] | Change of serum ALT versus saline ([2]; CTX-treated) | Serum ALT ([2]; high dose group) [IU/L] | Serum AST ([2]; high dose group) | Serum Creatinine ([2]; high dose group) [µmol/L] | Serum TBIL ([2]; high dose group) [µmol/L] | Change of serum concentrations of TBIL, BUN and Cr ([2]; i.p. injections) | Immune responses in tumor tissues (HE staining) [3] | Tumor necrosis in HE-stained tumor sections [3] | Inhibition Efficiency ([4]; CTX 71.6 μmol/kg/day, N = 10, nude mice) [%] | Mortality of mice ([4]; MCF-7 tumor-bearing nude mice under treatment) [%]
O=P1(N(CCCl)CCCl)NCCCO1 (centres unmarked) [CTX] | 52.0 | 1.80 ± 0.41 | 67.5 | 1.22 ± 0.86 | not reduced, but even slightly increased | 152.2 ± 71.5 | 337 ± 53.7 ^a IU/L | 51.0 ± 3.3 | 1.66 ± 0.59 | do not significantly changed | not observed | evidently induced tumor necrosis | 47.0 | 
CC(=O)O[C@H]1C(=O)[C@@]2(C)[C@H]([C@H](OC(=O)c3ccccc3)[C@]3(O)C[C@H](OC(=O)[C@H](O)[C@@H](NC(=O)c4ccccc4)c4ccccc4)C(C)=C1C3(C)C)[C@]1(OC(C)=O)CO[C@@H]1C[C@@H]2O [Paclitaxel] |  |  |  |  |  |  |  |  |  |  |  |  |  | 16.7
